One data set addresses human MCH-1 receptor (Homo sapiens (Human), UniProt Q99705). Description: Binding Assay for Human Melanin-Concentrating Hormone (MCH-1) Receptor. Conditions: membranes of CHO-K1 cells expressing human MCH-1 receptor; for Ki: radioligand displacement, Ki by Cheng Prusoff equation, read-out: MCH1 Ki. The method, then:
Binding Assay for Human Melanin-Concentrating Hormone (MCH-1) Receptor
Evaluation of the affinity of compounds for the human MCH-1 receptor was accomplished using 4-(3,4,5-tritritiumbenzyloxy)-1-(1-(2-(pyrrolidin-1-yl)ethyl)-1H-indazol-5-yl)pyridin-2(1H)-one and membranes prepared from stable CHO-K1 cells expressing the human MCH-1 receptor obtained from Euroscreen (Batch 1138). Cell membrane homogenates (8.92 μg protein) were incubated for 60 min at 25° C. with […] of the [^3H]-labeled compound in the absence or presence of the test compound in 50 mM Tris-HCl buffer, pH 7.4. Nonspecific binding was determined in the presence of 50 μM 1-(5-(4-cyanophenyl)bicyclo[3.1.0]hexan-2-yl)-3-(4-fluoro-3-(trifluoromethyl)phenyl)-1-(3-(4-methylpiperazin-1-yl)propyl)urea. Following incubation, the samples were filtered rapidly under vacuum through Skatron 11731 filters, pre-soaked in 0.5% polyethylenimine, and washed with ice-cold 50 mM Tris-HCl buffer, pH 7.4, (wash setting 9,9,0) using a Skatron cell harvester. The filters were counted for radioactivity in a liquid scintillation counter (Tri-Carb 2100TR, Packard) using a scintillation cocktail (Ultima Gold MV, Perkin Elmer).
The results are expressed as a percent inhibition of the control radioligand specific binding. The IC50 value (concentration causing a half-maximal inhibition of control specific binding) and Hill coefficient (nH) were determined by non-linear regression analysis of the competition curve using Hill equation curve fitting. The inhibition constant (Ki) was calculated from the Cheng Prusoff equation: (Ki=IC50/(1+(L/KD)), where L=concentration of radioligand in the assay, and KD=affinity of the radioligand for the receptor.

Each structure is given as a SMILES string. Read-outs that look alike come from different tables or passages of the source.

Chain of human MCH-1 receptor (Q99705 whole entry): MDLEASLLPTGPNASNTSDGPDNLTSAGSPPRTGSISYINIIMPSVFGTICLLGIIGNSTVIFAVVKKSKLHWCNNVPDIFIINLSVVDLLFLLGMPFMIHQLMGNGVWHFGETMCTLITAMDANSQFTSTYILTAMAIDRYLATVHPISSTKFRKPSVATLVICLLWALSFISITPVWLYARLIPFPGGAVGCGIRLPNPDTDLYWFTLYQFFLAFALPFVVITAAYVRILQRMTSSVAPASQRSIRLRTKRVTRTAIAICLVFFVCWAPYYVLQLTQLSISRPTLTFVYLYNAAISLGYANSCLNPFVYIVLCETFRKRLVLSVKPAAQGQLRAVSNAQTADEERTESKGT

For the compound `CC1Cc2c(c3ccc(-n4ccc(OCc5ccccc5)cc4=O)nc3n2C)CN1.Cl` (stereo not shown) [Example 13, 4-(Benzyloxy)-1-(7,9-dimethyl-5,7,8,9-tetrahydro-6H-pyrido[3′,4′:4,5]pyrrolo[2,3-b]pyridin-2-yl)pyridin-2(1H)-one hydrochloride], the melting point is 285 to 289 °C. Besides, the Ki at human MCH-1 receptor (hydrochloride) turned out to be 9.3 nM.

Compound `CC1Cc2c(c3ccc(-n4ccc(OCc5ccc(F)cn5)cc4=O)nc3n2C)CN1.Cl` (stereo not shown) [Example 14, 1-(7,9-Dimethyl-5,7,8,9-tetrahydro-6H-pyrido[3′,4′:4,5]pyrrolo[2,3-b]pyridin-2-yl)-4-((5-fluoropyridin-2-yl)methoxy)pyridin-2(1H)-one hydrochloride] gave a melting point of 288 to 292 °C. Also, at human MCH-1 receptor, the Ki is 25 nM.

As for `Cl.Cn1c2c(c3ccc(-n4ccc(OCc5ccc(F)cc5F)cc4=O)nc31)CNCC2` [Example 16, 4-((2,4-Difluorophenyl)methoxy)-1-(9-methyl-5,7,8,9-tetrahydro-6H-pyrido[3′,4′:4,5]pyrrolo[2,3-b]pyridin-2-yl)pyridin-2(1H)-one hydrochloride], the melting point lay in the range of 206 to 210 °C. In addition, the Ki on human MCH-1 receptor amounted to 8.3 nM.

`Cl.O=c1cc(OCc2ccc(F)cn2)ccn1-c1ccc2c(c1)nc1n2CCNC1` [Example 19, 4-((5-Fluoropyridin-2-yl)methoxy)-1-(1,2,3,4-tetrahydropyrazino[1,2-a]benzimidazol-8-yl)pyridin-2(1H)-one hydrochloride] gave a melting point of 245 to 255 °C. In addition, the inhibition at 1 µM on human MCH-1 receptor (@ 1 uM test compound, read-out: MCH1 percent inhibition of control radioligand specific binding) was 72%.

For the compound `Cl.O=c1cc(OCc2ccccc2)ccn1-c1ccn2c3c(nc2c1)CCNC3` [Example 22, 4-(Benzyloxy)-1-(1,2,3,4-tetrahydropyrido[4′,3′:4,5]imidazo[1,2-a]pyridin-7-yl)pyridin-2(1H)-one hydrochloride], the melting point was 280 °C (dec.). Moreover, the Ki on human MCH-1 receptor turned out to be 21 nM.

As a reminder, the melting point is the temperature of the solid-liquid transition. As usually defined, the Ki is the equilibrium dissociation constant of an inhibitor or competing ligand from its target. One may read the inhibition as the drop in the measured response relative to a control, in per cent.

The values are drawn from patent US8993765B2, “Tetrahydro-azacarboline MCH-1 antagonists, methods of making, and uses thereof” (Albany Molecular Research, Inc., priority 2010, dated 2015).
